From patent US10799467B2, “Use of the phytocannabinoid cannabidivarin (CBDV) in the treatment of epilepsy” (GW Pharma Limited, priority 2010, dated 2020)

Legend:
[1] = tested on: epileptiform burst activity in hippocampal slices (Mg2+-free model); experiment: Mg2+-free in vitro epileptiform model in hippocampal brain slices (multi-electrode array); type: cell-based, Wistar rats
Method: (§1) Use of isolated CBDV in two in vitro epileptiform models in hippocampal brain slices
(§2) Hippocampal slices were produced acutely from P>21 Wistar rats and activity recorded by multi-electrode arrays (MEA).
(§3) To induce epileptiform activity, either Mg^2+ was removed (Mg^2+-free model) or 100 μM 4-aminopyridine was added (4-AP model). 30 min after epileptiform burst activity was established, CBDV was added cumulatively (1, 10, 100 μM; 30 min each).
(§4) The effects of CBDV on epileptiform burst amplitude and duration were measured (Table 2.1).

[2] = tested on: epileptiform burst activity in hippocampal slices (4-AP model); experiment: 4-AP in vitro epileptiform model in hippocampal brain slices (multi-electrode array); type: cell-based, Wistar rats
Method: as §1, §2, §3, §4

[3] = tested on: pilocarpine-induced seizures; experiment: Pilocarpine model of epilepsy; type: in vivo; conditions: CBDV 50 and 100 mg/kg IP; pilocarpine 380 mg/kg IP
Method: Isolated CBDV was injected intra-peritoneally (IP) in the standard vehicle (1:1:18 ethanol:Cremophor:0.9%^w/v NaCl) at doses of 50, 100 and 200 mg/kg alongside animals that received vehicle alone at a matched volume. 15 minutes later methylscopolamine (1 mg/kg; to reduce peripheral muscarinic effects of pilocarpine) was administered followed, 45 minutes later by pilocarpine (380 mg/kg, IP) administration.

[4] = tested on: motor function; experiment: Linearly accelerating rotarod test of motor function; type: in vivo, rats; conditions: for time remaining on the rotarod (latency to fall): 60 minutes after administration, vehicle 111.6 seconds
Method: Each animal received either CBDV (100 or 200 mg/kg, n=10 for each group) or vehicle (2:1:17 Cremophor:ethanol:saline [n=12] or saline [n=11]) on a given experimental day. Experimental test days were separated by a two day rest period to allow for clearance of previous compounds. The order of drug administration was randomised using a standard Latin square design.
60 minutes after CBDV or vehicle administration, animals were placed on a linearly accelerating rotarod (Panlab/Harvard Apparatus, Holliston, USA) that increased in speed from 4 to 40 rpm over a 300 second period. An accelerating protocol was employed to eliminate the need for habituation to the rotarod, minimising divergence in the results obtained for each animal owing to disproportionate improvements in performance. Each test ended when the animal fell from the rotarod, with each animal performing three accelerating rotarod runs per experimental day. Animals were allowed a 5 minute recovery between tests to prevent fatigue-induced declines in performance. Mean latency in seconds to fall from the rotarod was compared between vehicle control and CBDV groups to assess motor function.
To assess whether there were significant effects on motor function between the two different vehicle treatments, we subjected the data to Mann-Whitney U test. Lack of significance in this analysis would allow us to combine vehicle groups thereby reducing duration of testing (i.e. each rat would undertake only one vehicle treatment test day rather than two). For analysis of CBDV effects on motor function, data were subjected to a between-subjects 1-way ANOVA with drug concentration as the main factor. In all cases, P≤0.05 was considered to be significant.

## C=C(C)[C@@H]1CCC(C)=C[C@H]1c1c(O)cc(CCC)cc1O [CBDV, Cannabidivarin]
[1]; CBDV 1 μM
  Burst amplitude (% of control) CA1: 82.23 ± 10.4 % of control
  Burst duration (% of control) CA1: 99.3 ± 4.5 % of control
  Burst amplitude (% of control) CA3: 112.7 ± 13.7 % of control
  Burst duration (% of control) CA3: 101.7 ± 2.3 % of control
  Burst amplitude (% of control) DG: 89.8 ± 8.6 % of control
  Burst duration (% of control) DG: 90.6 ± 4.5 % of control
[1]; CBDV 10 μM
  Burst amplitude (% of control) CA1: 79.9 ± 6.9 % of control
  Burst duration (% of control) CA1: 91.2 ± 3.8 % of control
  Burst amplitude (% of control) CA3: 104.8 ± 10.3 % of control
  Burst duration (% of control) CA3: 93.9 ± 4.1 % of control
  Burst amplitude (% of control) DG: 86.4 ± 3.6 % of control
  Burst duration (% of control) DG: 92.0 ± 3.2 % of control
[1]; CBDV 100 μM
  Burst amplitude (% of control) CA1: 80.4 ± 8.0 % of control
  Burst duration (% of control) CA1: 74.0 ± 5.8 % of control
  Burst amplitude (% of control) CA3: 102.9 ± 13.0 % of control
  Burst duration (% of control) CA3: 78.5 ± 6.6 % of control
  Burst amplitude (% of control) DG: 79.5 ± 5.6 % of control
  Burst duration (% of control) DG: 75.6 ± 5.4 % of control
[2]; CBDV 1 μM
  Burst amplitude (% of control) CA1: 89.3 ± 5.6 % of control
  Burst duration (% of control) CA1: 104.3 ± 8.0 % of control
  Burst amplitude (% of control) CA3: 103.0 ± 5.8 % of control
  Burst duration (% of control) CA3: 91.0 ± 6.0 % of control
  Burst amplitude (% of control) DG: 94.2 ± 3.0 % of control
  Burst duration (% of control) DG: 95.7 ± 5.9 % of control
[2]; CBDV 10 μM
  Burst amplitude (% of control) CA1: 88.3 ± 5.2 % of control
  Burst duration (% of control) CA1: 85.9 ± 6.2 % of control
  Burst amplitude (% of control) CA3: 121.9 ± 17.0 % of control
  Burst duration (% of control) CA3: 82.5 ± 4.8 % of control
  Burst amplitude (% of control) DG: 91.2 ± 4.9 % of control
  Burst duration (% of control) DG: 83.8 ± 4.4 % of control
[2]; CBDV 100 μM
  Burst amplitude (% of control) CA1: 89.5 ± 5.3 % of control
  Burst duration (% of control) CA1: 85.9 ± 5.8 % of control
  Burst amplitude (% of control) CA3: 110.3 ± 7.0 % of control
  Burst duration (% of control) CA3: 79.7 ± 5.4 % of control
  Burst amplitude (% of control) DG: 95.9 ± 4.3 % of control
  Burst duration (% of control) DG: 83.4 ± 4.1 % of control
[3]
  mortality: decreased
[4]; 100 mg/kg CBDV
  time remaining on the rotarod (latency to fall): 86.6 s
[4]; 200 mg/kg CBDV
  time remaining on the rotarod (latency to fall): 110.0 s
[4]; CBDV at any dose (100, 200 mg/kg), P=0.253
  effect on the latency to fall compared to vehicle: no effect
